Experimental data taken from patent US20240065988A1, “COMBINED USE OF KETAMINE AND RETIGABINE (EZOGABINE) FOR THE TREATMENT OF PSYCHIATRIC DISORDERS” (Yeda Research and Development Co. Ltd., priority 2021, published 2024).
“Also recorded” adds a separate entry of the source.

What was measured:
mice (C57BL/6N) = assay: Forced swim test (FST), pharmacological manipulation of KCNQ; assay type: in vivo, mouse
Protocol: C57BL/6N and CD-1 (ICR) male mice aged 10 weeks old were used in these experiments. Ketamine hydrochloride (Ketaset, Zoetis, Germany) was diluted in 0.9% NaCl solution (saline) and administered i.p at 1, 5 or 10 mg/kg BW, depending on the experiment design. The KNCQ inhibitor, XE991 (Alomone labs; Cat #: X-100) was diluted in 5% DMSO and administered i.p at 1 or 3 mg/kg BW. The KCNQ activator, Retigabine (Alomone labs; Cat #: R-100), was diluted in 5% DMSO and administered i.p at 1 or 5 mg/kg BW. As control, mice were injected with a DMSO-saline solution (5% DMSO). For all experiments, mice were tested 30 minutes after injection in the FST or over a period of 36 hours after injection in the social boxes.
Previous studies in rodents have shown that KCNQ function can be regulated with highly-specific agonists and antagonists [V. Barrese et al., Annu Rev Pharmacol Toxicol (2018) 58: 625-648]. To further explore the KCNQ channel as a potential therapeutic target of ketamine, it was examined whether pharmacological inhibition of KCNQ alone or in combination with ketamine had any effects on behavior. To accomplish this, a new cohort of mice received two injections with a combination of drugs. […] To assess the effects of ketamine, XE991 (KCNQ inhibitor), and its combination, these mice were exposed to a FST (FIG. 7A, left). […] The inventors then sought to test whether the effects of ketamine could be mimicked, increased or amplified using retigabine, also known as ezogabine, a selective KCNQ (Kcnq2/3) channel activator. Similarly to the previous experiment, mice were treated with saline, (R,S)-ketamine (10 mg/kg BW), or ketamine in combination with two different concentrations of retigabine (1 and 5 mg/kg BW) (FIG. 7A, right).
Next, it was examined whether retigabine could increase the sustained antidepressant-like effects produced by a single injection of ketamine in mice. Accordingly, a new cohort of mice were treated with a single dose of saline, ketamine, or ketamine in combination with retigabine (1 mg/kg) and antidepressant-like behaviors were assessed using the FST, 5—and 7-days post-injection (FIG. 8A). […] Next, as a potential therapeutic strategy for major depressive disorder (MDD), the synergistic effects of ketamine and retigabine was further investigated by testing whether or not retigabine can increase the antidepressant-like effects produced by ketamine in mice. […] Next, it was tested whether retigabine can produce similar synergistic effects in combination with traditional antidepressants. […] Lastly, using a new cohort of Nex-Cre-Ai9 mice, it was tested whether the adjunctive treatment of ketamine with retigabine, or escitalopram alone, could modify the expression of Kcnq2 mRNA in FACS sorted cells from the vHipp (FIG. 8F).

[1] = test system: KCNQ channel (KCNQ2/3, M-current); assay: Ex vivo patch-clamp recording of IM current density in CA1 pyramidal neurons of acute vHipp slices; parameters: species or system mouse; details: ketamine 10 mg/kg BW i.p., 36 hours before slice preparation vs saline
[2] = test system: ventral hippocampus bulk tissue; assay: Bulk qPCR mRNA levels in brain punches (tissue homogenates) from the vHipp; assay type: in vivo, mouse; details: ketamine 10 mg/kg, 2 days
[3] = test system: CD-1 mice injected with shRNA-Kcnq2 or shRNA-control AAV; assay: Forced swim test after AAV shRNA knockdown of Kcnq2 in the vHipp; assay type: in vivo, mouse
mice = assay: Home cage activity (locomotion); assay type: in vivo, mouse; details: 60-min period following treatment and 2 days post injection
Protocol: The home cage activity was measured with the Mouse-E-Motion infrared-detecting devices (Infra-e-motion, Germany). Mice were single housed in fresh cages, and a metal food tray was employed to hold the devices in place. The base bedding was kept, but extra nesting materials that could conceal the animal were removed. The readout lasted 2 days (post-injection) during which time the animals were not disturbed. Locomotor activity was detected in 5-minute increments and averaged by the hour. The final analysis was applied to the first 60-minute period and the 48 hours (2 days), post injection.

CSDS mice (Nex-Cre-Ai9) = assay: Forced swim test in chronic social defeat stress (CSDS) mice; details: ketamine 10 mg/kg i.p. vs saline, two days after treatment

## CNC1(c2ccccc2Cl)CCCCC1=O (racemic) [ketamine, (R,S)-ketamine]
Mice (C57BL/6N); (R,S)-ketamine 10 mg/kg/BW, dose series (FIG. 8E, FIG. 26A)
  immobility time during the FST: significant reduction of immobility time
Mice (C57BL/6N); (R,S)-ketamine 1 and 5 mg/kg/BW
  antidepressant-like effects in the FST: failed to produce antidepressant-like effects
Mice (C57BL/6N); ketamine 10 mg/kg BW alone vs saline (FIGS. 23A-B)
  immobility time during the FST: significant decrease in immobility time; also recorded: significant effect
Mice (C57BL/6N); single dose of ketamine alone
  FST effect at day 7 post-injection: disappeared by day 7
  duration of the FST effect post-injection: up to five days
Mice (C57BL/6N); single dose of ketamine alone, several days post-injection (day 5)
  immobility time during the FST, sustained effect: significant decrease in immobility time
[1]
  IM current density: significant increase in IM current density
[2]
  bulk mRNA expression of the 8 genes, ketamine vs saline: did not reach statistical significance
[3]; mice expressing the shRNA-Kcnq2 virus, ketamine 10 mg/kg BW
  antidepressant-like effects of ketamine in the FST: no longer detected
[3]; shRNA-scramble control mice, ketamine 10 mg/kg BW vs saline
  immobility time during the FST: significant decrease in immobility time
mice
  locomotor activity (home cage), ketamine vs saline: no differences in total activity between groups; also recorded: no significant difference in the locomotion activity
CSDS mice (Nex-Cre-Ai9)
  immobility time during the FST: significant decrease in immobility time
